From article PMC7158045 (BMC Plant Biology, 2020)

Assays:
Test in all cases: biochemical
[1] = molecular target: T1, ZmDRIK1 (DROUGHT RESPONSIVE INACTIVE KINASE 1), kinase domain (Zea mays, UniProt C0P4K9); conditions: read-out: dTm B, sheet ZmDRIK1-R187-S514;; DSF, Boltzmann fit, 0.1% DMSO
T1 construct: gene ZEAMMB73_Zm00001d028770; ZmDRIK1-KD R187-S514 (kinase domain)
T1 sequence (C0P4K9 187-514): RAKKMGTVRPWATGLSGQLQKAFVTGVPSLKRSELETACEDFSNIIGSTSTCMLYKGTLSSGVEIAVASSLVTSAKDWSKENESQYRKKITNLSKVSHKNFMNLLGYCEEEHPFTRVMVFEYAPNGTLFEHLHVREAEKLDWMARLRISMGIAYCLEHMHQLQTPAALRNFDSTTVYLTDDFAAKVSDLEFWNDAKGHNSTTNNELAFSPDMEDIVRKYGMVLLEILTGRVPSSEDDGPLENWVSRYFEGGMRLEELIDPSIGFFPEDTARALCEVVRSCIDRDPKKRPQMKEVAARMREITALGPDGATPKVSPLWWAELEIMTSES

ZmDRIK1-K217-S514 = molecular target: T2, ZmDRIK1-K217-S514 (Zea mays, UniProt C0P4K9); conditions: read-out: dTm B, sheet ZmDRIK1-K217-S514;; DSF, Boltzmann fit, 0.1% DMSO
T2 construct: kinase domain, K217-S514
T2 sequence (C0P4K9 1-514): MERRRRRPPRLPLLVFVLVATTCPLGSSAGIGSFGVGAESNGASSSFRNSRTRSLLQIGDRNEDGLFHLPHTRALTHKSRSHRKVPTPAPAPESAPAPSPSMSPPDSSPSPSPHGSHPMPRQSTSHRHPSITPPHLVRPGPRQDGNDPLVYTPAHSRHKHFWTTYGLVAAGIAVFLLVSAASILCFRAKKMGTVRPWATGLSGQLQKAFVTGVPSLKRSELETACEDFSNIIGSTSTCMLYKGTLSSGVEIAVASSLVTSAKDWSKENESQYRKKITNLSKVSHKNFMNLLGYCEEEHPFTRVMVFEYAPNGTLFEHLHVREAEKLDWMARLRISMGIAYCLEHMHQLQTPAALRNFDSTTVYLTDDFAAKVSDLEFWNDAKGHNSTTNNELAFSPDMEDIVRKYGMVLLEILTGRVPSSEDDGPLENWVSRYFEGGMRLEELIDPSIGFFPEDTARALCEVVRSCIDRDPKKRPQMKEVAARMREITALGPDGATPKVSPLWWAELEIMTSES

ZmDRIK1-K217-P492 = molecular target: T3, ZmDRIK1-K217-P492 (Zea mays, UniProt C0P4K9); conditions: read-out: dTm B, sheet ZmDRIK1-K217-P492;; DSF, Boltzmann fit, 0.1% DMSO
T3 construct: kinase domain, K217-P492
T3 sequence (C0P4K9 1-514): T2 sequence (C0P4K9 1-514)

ZmDRIK1-R187-P492 = molecular target: T4, ZmDRIK1-R187-P492 (Zea mays, UniProt C0P4K9); conditions: read-out: dTm B, DSF, Boltzmann fit, 0.1% DMSO
T4 construct: kinase domain, R187-P492
T4 sequence (C0P4K9 1-514): T2 sequence (C0P4K9 1-514)

| SMILES | ΔTm at 10 µM [1] [°C] | ΔTm at 10 µM (ZmDRIK1-K217-S514) [°C] | ΔTm at 10 µM (ZmDRIK1-K217-P492) [°C] | ΔTm at 10 µM (ZmDRIK1-R187-P492) [°C] |
| --- | --- | --- | --- | --- |
| CC(C)(C)c1cc(/C=C(\C#N)C(N)=S)cc(C(C)(C)C)c1O [Tyrphostin AG 879] | -0.339 | 0.259 | -0.358 | -0.277 |
| CCOc1ccn(-c2ccc(F)cc2)c(=O)c1C(=O)Nc1ccc(Oc2ccnc(N)c2Cl)c(F)c1 [BMS-777607] | -1.06 | -0.662 | -0.979 | -0.218 |
| Cc1cc(C)nc(NS(=O)(=O)c2ccc(NC(=S)NC(=O)COc3ccc(Br)cc3Cl)cc2)n1 [ZCL278] | -1.01 | -0.166 | -1.02 | -0.134 |
| CNC(=O)CN1CCC(Oc2cc3c(Nc4cccc(Cl)c4F)ncnc3cc2OC)CC1 [AZD8931 (Sapitinib)] | -1.22 | -0.326 | -1.14 | -0.238 |
| O=C(Nc1ccc(-c2ccnc(Nc3ccc(N4CCOCC4)cc3)n2)cc1)C1CCCN1 (stereo not drawn) [XL019] | -0.481 | -0.368 | -0.95 | -0.478 |
| Cc1[nH]nc2ccc(-c3cncc(OC[C@@H](N)Cc4ccccc4)c3)cc12 [A-674563] | -0.493 | -0.328 | -0.898 | -0.417 |
| CCC[C@H](NC(=O)/C(C#N)=C/c1cccc(Br)n1)c1ccccc1 [Degrasyn (WP1130)] | -5.72 | -3.28 | -5.21 | -3.03 |
| COc1cc2ncnc(Nc3ccc(Cl)cc3F)c2cc1OC [ZM 306416] | -0.525 | -0.336 | -0.758 | -0.383 |
| CNC(=O)c1cc(Oc2ccc(NC(=O)Nc3cc(C(C)(C)C)nn3-c3ccc4ncccc4c3)c(F)c2)ccn1 [DCC-2036 (Rebastinib)] | -1.41 | -0.422 | -1.25 | -0.261 |
| COc1cc(CCc2cc(NC(=O)c3ccc(N4C[C@@H](C)N[C@@H](C)C4)cc3)n[nH]2)cc(OC)c1 [AZD4547] | 0.239 | 0.296 | 0.194 | 0.421 |
| CO[C@H]1C[C@@H]2CC[C@@H](C)[C@@](O)(O2)C(=O)C(=O)N2CCCC[C@H]2C(=O)O[C@H]([C@H](C)C[C@@H]2CC[C@@H](OCCO)[C@H](OC)C2)CC(=O)[C@H](C)/C=C(\C)[C@@H](O)[C@@H](OC)C(=O)[C@H](C)C[C@H](C)/C=C/C=C/C=C/1C [Everolimus (RAD001)] | -0.644 | -0.327 | -1.22 | -0.526 |
| CSc1cccc(Nc2ncc3cc(-c4c(Cl)cccc4Cl)c(=O)n(C)c3n2)c1 [PD173955] | -1.36 | -0.595 | -2.14 | -0.72 |
| C=CC(=O)Nc1ccc2ncnc(Nc3cccc(Br)c3)c2c1 [PD168393] | -0.108 | 0.721 | -0.0923 | 0.724 |
| CC(C)(C#N)c1ccc(N2C(=O)OCc3cnc4ccc(-c5cnc6ccccc6c5)cc4c32)cc1 [ETP-46464] | -0.702 | -0.552 | -1.05 | -0.423 |
| COc1cc(Nc2ncc3c(n2)-c2ccc(Cl)cc2C(c2c(F)cccc2OC)=NC3)ccc1C(=O)O [Alisertib (MLN8237)] | -1.37 | -0.528 | -1.1 | -0.494 |
| O=C(Nc1cccc(Nc2ncc(Br)c(NCCc3cnc[nH]3)n2)c1)N1CCCC1 [BX-912] | -0.512 | -0.277 | -0.986 | -0.165 |
| CC1(COc2ccc3c(c2)ncn3-c2ccc3cccc(N4CCC(N)CC4)c3n2)COC1 [Crenolanib (CP-868596)] | -0.526 | -0.0308 | -0.453 | -0.209 |
| COc1cc2ncnc(Oc3cccc(NC(=O)Nc4cc(C(C)(C)C(F)(F)F)on4)c3)c2cc1OC [CEP-32496] | -0.0221 | -0.917 | -0.207 | -0.956 |

| SMILES | ΔTm at 10 µM [1] [°C] | ΔTm at 10 µM (ZmDRIK1-K217-S514) [°C] | ΔTm at 10 µM (ZmDRIK1-K217-P492) [°C] | ΔTm at 10 µM (ZmDRIK1-R187-P492) [°C] |
| --- | --- | --- | --- | --- |
| O=C(NC(NC(=S)Nc1ccc(F)c([N+](=O)[O-])c1)C(Cl)(Cl)Cl)C(c1ccccc1)c1ccccc1 (stereo not drawn) [CGK 733] | 0.221 | 0.146 | -1.46 | 0.467 |
| O=S(=O)(NCCNC/C=C/c1ccc(Br)cc1)c1cccc2cnccc12 [H 89 2HCl] | -0.703 | -0.188 | -0.68 | -0.178 |
| C1=N/C2=N/c3ccc(OCCN4CCCC4)c(c3)COC/C=C/COCc3cccc(c3)C(=C1)N2 [Pacritinib (SB1518)] | 0.0273 | 0.03 | 1.04 | -0.0853 |
| CCS(=O)(=O)Nc1ccc2c(c1)/C(=C(/Nc1ccc(CN3CCCCC3)cc1)c1ccccc1)C(=O)N2 [Hesperadin] | -0.801 | -0.308 | 0.108 | -0.086 |
| CCN1CCN(Cc2ccc(Nc3ncc(F)c(-c4cc(F)c5nc(C)n(C(C)C)c5c4)n3)nc2)CC1 [LY2835219] | -0.878 | -0.201 | -0.986 | -0.433 |
| CNCc1ccc(-c2cc(-c3nc(-c4ccc(S(=O)(=O)C(C)C)cc4)cnc3N)on2)cc1 [VE-822] | -0.91 | -0.454 | -0.634 | -0.196 |
| C[C@@H]1CN(CC(=O)Nc2ccc3c(c2)Cc2cccc(-c4cc(=O)cc(N5CCOCC5)o4)c2S3)C[C@H](C)O1 [KU-60019] | -1.17 | -0.426 | -1.19 | -0.366 |
| Cc1cnc(NC(=O)Nc2cc(Br)c(C)cc2OC[C@@H]2CNCCO2)cn1 [LY2603618] | -0.608 | -0.525 | -0.992 | -0.548 |
| Fc1cc(-c2cccc3ncc(-c4cnn(C5CCNCC5)c4)nc23)cc(F)c1CN1CCOCC1 [NVP-BSK805 2HCl] | -0.913 | -0.602 | -0.999 | -0.0846 |
| COc1cc(N2CCC(N)CC2)ccc1Nc1ncc(Cl)c(-c2c[nH]c3ccccc23)n1 [AZD3463] | -0.307 | 0.133 | -0.184 | 0.74 |
| O=C1NC(=O)C(=Cc2ccc(-c3ccc(F)cc3)o2)S1 (stereo in doubt) [CAY10505] | -0.534 | -0.62 | -0.834 | -0.47 |
| CCNC(=O)Nc1ccc(-c2nc3c(c(N4CCOC[C@@H]4C)n2)CCN(C2COC2)C3)cc1 [GDC-0349] | -0.899 | -0.392 | -0.749 | -0.218 |
| Cc1nc(NC(=O)N2CCC[C@H]2C(N)=O)sc1-c1ccnc(C(C)(C)C(F)(F)F)c1 [BYL719] | -0.448 | -0.465 | -0.718 | -0.328 |
| CNc1nc(Nc2cn(C(C)(C)C#N)nc2C)ncc1C(F)(F)F [GNE-0877] | -0.833 | -0.602 | -0.848 | -0.575 |
| CCN1/C(=C/C(C)=O)Sc2ccc(OC)cc21 [TG003] | -0.488 | -0.33 | -1.11 | -0.291 |
| CCN(CC)CCCC(C)Nc1nc(C)cc(Nc2ccc3nc(C)cc(N)c3c2)n1 (stereo not drawn) [NSC 23766] | -0.461 | -0.555 | -0.485 | -0.128 |
| Cc1c(F)cc(C(=O)NC2CC2)cc1-c1ccc(C(=O)NCC(C)(C)C)cn1 [Losmapimod (GW856553X)] | -0.594 | -0.464 | -0.577 | -0.242 |
| CCOC(=O)c1cnc2ccc(-c3cncc(NS(=O)(=O)c4ccccc4)c3)cn12 [HS-173] | -0.566 | -0.361 | -0.326 | -0.247 |
